From ChEMBL document CHEMBL5724914, “Linking interpersonal differences in gut microbiota composition and drug biotransformation activity” (2024)

What was measured:
[1] = human gut metagenome, 24 h, 2 µM
[2] = human gut metagenome, 24 h, 2 µM; remark: listed apart in the source
[3] = The drug is tested on Z-010 corresponding to metagenome with ENA study accession number: PRJEB37062 and ENA sample accession number: ERS12561810 for biotransformation under anaerobic condition. The drug concentrations were measured over 9 timepoints collected between 0 and 24 hours of incubation by liquid-chromatography-coupled mass spectrometry (LC–MS); details: 2 µM
[4] = human gut metagenome, 24 h, 2 µM; remark: listed apart in the source
[5] = human gut metagenome, 24 h, 2 µM; remark: listed apart in the source
[6] = human gut metagenome, 24 h, 2 µM; remark: listed apart in the source
[7] = human gut metagenome, 24 h, 2 µM; remark: listed apart in the source
[8] = The drug is tested on Z-004 corresponding to metagenome with ENA study accession number: PRJEB37062 and ENA sample accession number: ERS12561804 for biotransformation under anaerobic condition. The drug concentrations were measured over 9 timepoints collected between 0 and 24 hours of incubation by liquid-chromatography-coupled mass spectrometry (LC–MS); details: 2 µM
[9] = The drug is tested on Z-021 corresponding to metagenome with ENA study accession number: PRJEB37062 and ENA sample accession number: ERS12561820 for biotransformation under anaerobic condition. The drug concentrations were measured over 9 timepoints collected between 0 and 24 hours of incubation by liquid-chromatography-coupled mass spectrometry (LC–MS); details: 2 µM
[10] = The drug is tested on Z-006 corresponding to mouse gut metagenome with ENA study accession number: PRJEB37062 and ENA sample accession number: ERS12561806 for biotransformation under anaerobic condition. The drug concentrations were measured over 9 timepoints collected between 0 and 24 hours of incubation by liquid-chromatography-coupled mass spectrometry (LC–MS); details: 2 µM
[11] = The drug is tested on Z-030 corresponding to mouse gut metagenome with ENA study accession number: PRJEB37062 and ENA sample accession number: ERS12561829 for biotransformation under anaerobic condition. The drug concentrations were measured over 9 timepoints collected between 0 and 24 hours of incubation by liquid-chromatography-coupled mass spectrometry (LC–MS); details: 2 µM
[12] = The drug is tested on WLS-170 corresponding to human gut metagenome with ENA study accession number: PRJEB37062 and ENA sample accession number: ERS12561762 for biotransformation under anaerobic condition. The drug concentrations were measured over 9 timepoints collected between 0 and 24 hours of incubation by liquid-chromatography-coupled mass spectrometry (LC–MS); details: 2 µM
[13] = human gut metagenome, 24 h, 2 µM; remark: listed apart in the source
[14] = The drug is tested on Z-013 corresponding to rabbit gut metagenome with ENA study accession number: PRJEB37062 and ENA sample accession number: ERS12561813 for biotransformation under anaerobic condition. The drug concentrations were measured over 9 timepoints collected between 0 and 24 hours of incubation by liquid-chromatography-coupled mass spectrometry (LC–MS); details: 2 µM
[15] = The drug is tested on WLS-240 corresponding to human gut metagenome with ENA study accession number: PRJEB37062 and ENA sample accession number: ERS12561773 for biotransformation under anaerobic condition. The drug concentrations were measured over 9 timepoints collected between 0 and 24 hours of incubation by liquid-chromatography-coupled mass spectrometry (LC–MS); details: 2 µM
[16] = human gut metagenome, 24 h, 2 µM; remark: listed apart in the source
[17] = The drug is tested on Z-029 corresponding to rat gut metagenome with ENA study accession number: PRJEB37062 and ENA sample accession number: ERS12561828 for biotransformation under anaerobic condition. The drug concentrations were measured over 9 timepoints collected between 0 and 24 hours of incubation by liquid-chromatography-coupled mass spectrometry (LC–MS); details: 2 µM
[18] = The drug is tested on WLS-082 corresponding to human gut metagenome with ENA study accession number: PRJEB37062 and ENA sample accession number: ERS12561751 for biotransformation under anaerobic condition. The drug concentrations were measured over 9 timepoints collected between 0 and 24 hours of incubation by liquid-chromatography-coupled mass spectrometry (LC–MS); details: 2 µM
[19] = The drug is tested on Z-016 corresponding to mouse gut metagenome with ENA study accession number: PRJEB37062 and ENA sample accession number: ERS12561815 for biotransformation under anaerobic condition. The drug concentrations were measured over 9 timepoints collected between 0 and 24 hours of incubation by liquid-chromatography-coupled mass spectrometry (LC–MS); details: 2 µM
[20] = human gut metagenome, 24 h, 2 µM; remark: listed apart in the source
Further: call rule not given here.

CN1CCN(C(=O)O[C@H]2c3nccnc3C(=O)N2c2ccc(Cl)cn2)CC1 [ESZOPICLONE]
Bacterial Biotransformation [1]: Compound NOT metabolized
Bacterial Biotransformation [2]: Compound NOT metabolized
Bacterial Biotransformation [3]: Compound NOT metabolized
Bacterial Biotransformation [4]: Compound NOT metabolized
Bacterial Biotransformation [5]: Compound NOT metabolized
Bacterial Biotransformation [6]: Compound NOT metabolized
Bacterial Biotransformation [7]: Compound NOT metabolized
Bacterial Biotransformation [8]: Compound NOT metabolized
Bacterial Biotransformation [9]: Compound NOT metabolized
Bacterial Biotransformation [10]: Compound NOT metabolized
Bacterial Biotransformation [11]: Compound NOT metabolized
Bacterial Biotransformation [12]: Compound NOT metabolized
Bacterial Biotransformation [13]: Compound NOT metabolized
Bacterial Biotransformation [14]: Compound NOT metabolized
Bacterial Biotransformation [15]: Compound NOT metabolized
Bacterial Biotransformation [16]: Compound NOT metabolized
Bacterial Biotransformation [17]: Compound NOT metabolized
Bacterial Biotransformation [18]: Compound NOT metabolized
Bacterial Biotransformation [19]: Compound NOT metabolized
Bacterial Biotransformation [20]: Compound NOT metabolized

CC(C)OC(=O)C(C)(C)Oc1ccc(C(=O)c2ccc(Cl)cc2)cc1 [FENOFIBRATE]
Bacterial Biotransformation [1]: Compound metabolized
Bacterial Biotransformation [2]: Compound NOT metabolized
Bacterial Biotransformation [3]: Compound metabolized
Bacterial Biotransformation [4]: Compound metabolized
Bacterial Biotransformation [5]: Compound NOT metabolized
Bacterial Biotransformation [6]: Compound NOT metabolized
Bacterial Biotransformation [7]: Compound NOT metabolized
Bacterial Biotransformation [8]: Compound metabolized
Bacterial Biotransformation [9]: Compound NOT metabolized
Bacterial Biotransformation [10]: Compound metabolized
Bacterial Biotransformation [11]: Compound metabolized
Bacterial Biotransformation [12]: Compound metabolized
Bacterial Biotransformation [13]: Compound metabolized
Bacterial Biotransformation [14]: Compound metabolized
Bacterial Biotransformation [15]: Compound NOT metabolized
Bacterial Biotransformation [16]: Compound metabolized
Bacterial Biotransformation [17]: Compound NOT metabolized
Bacterial Biotransformation [18]: Compound NOT metabolized
Bacterial Biotransformation [19]: Compound metabolized
Bacterial Biotransformation [20]: Compound NOT metabolized

O=C1NCC2(CCN(CCc3ccccc3)CC2)O1 [FENSPIRIDE]
Bacterial Biotransformation [1]: Compound NOT metabolized
Bacterial Biotransformation [2]: Compound NOT metabolized
Bacterial Biotransformation [3]: Compound NOT metabolized
Bacterial Biotransformation [4]: Compound metabolized
Bacterial Biotransformation [5]: Compound NOT metabolized
Bacterial Biotransformation [6]: Compound NOT metabolized
Bacterial Biotransformation [7]: Compound NOT metabolized
Bacterial Biotransformation [8]: Compound NOT metabolized
Bacterial Biotransformation [9]: Compound NOT metabolized
Bacterial Biotransformation [10]: Compound NOT metabolized
Bacterial Biotransformation [11]: Compound NOT metabolized
Bacterial Biotransformation [12]: Compound NOT metabolized
Bacterial Biotransformation [13]: Compound NOT metabolized
Bacterial Biotransformation [14]: Compound NOT metabolized
Bacterial Biotransformation [15]: Compound NOT metabolized
Bacterial Biotransformation [16]: Compound NOT metabolized
Bacterial Biotransformation [17]: Compound NOT metabolized
Bacterial Biotransformation [18]: Compound NOT metabolized
Bacterial Biotransformation [19]: Compound NOT metabolized
Bacterial Biotransformation [20]: Compound NOT metabolized

OC(Cn1cncn1)(Cn1cncn1)c1ccc(F)cc1F [FLUCONAZOLE]
Bacterial Biotransformation [1]: Compound metabolized
Bacterial Biotransformation [2]: Compound NOT metabolized
Bacterial Biotransformation [3]: Compound NOT metabolized
Bacterial Biotransformation [4]: Compound metabolized
Bacterial Biotransformation [5]: Compound NOT metabolized
Bacterial Biotransformation [6]: Compound metabolized
Bacterial Biotransformation [7]: Compound metabolized
Bacterial Biotransformation [8]: Compound NOT metabolized
Bacterial Biotransformation [9]: Compound metabolized
Bacterial Biotransformation [10]: Compound NOT metabolized
Bacterial Biotransformation [11]: Compound NOT metabolized
Bacterial Biotransformation [12]: Compound metabolized
Bacterial Biotransformation [13]: Compound NOT metabolized
Bacterial Biotransformation [14]: Compound NOT metabolized
Bacterial Biotransformation [15]: Compound metabolized
Bacterial Biotransformation [16]: Compound NOT metabolized
Bacterial Biotransformation [17]: Compound NOT metabolized
Bacterial Biotransformation [18]: Compound metabolized
Bacterial Biotransformation [19]: Compound NOT metabolized
Bacterial Biotransformation [20]: Compound metabolized

CNCCC(Oc1ccc(C(F)(F)F)cc1)c1ccccc1 (stereo not given) [FLUOXETINE]
Bacterial Biotransformation [1]: Compound NOT metabolized
Bacterial Biotransformation [2]: Compound NOT metabolized
Bacterial Biotransformation [3]: Compound NOT metabolized
Bacterial Biotransformation [4]: Compound NOT metabolized
Bacterial Biotransformation [5]: Compound NOT metabolized
Bacterial Biotransformation [6]: Compound NOT metabolized
Bacterial Biotransformation [7]: Compound metabolized
Bacterial Biotransformation [8]: Compound NOT metabolized
Bacterial Biotransformation [9]: Compound NOT metabolized
Bacterial Biotransformation [10]: Compound NOT metabolized
Bacterial Biotransformation [11]: Compound NOT metabolized
Bacterial Biotransformation [12]: Compound NOT metabolized
Bacterial Biotransformation [13]: Compound NOT metabolized
Bacterial Biotransformation [14]: Compound NOT metabolized
Bacterial Biotransformation [15]: Compound metabolized
Bacterial Biotransformation [16]: Compound NOT metabolized
Bacterial Biotransformation [17]: Compound NOT metabolized
Bacterial Biotransformation [18]: Compound NOT metabolized
Bacterial Biotransformation [19]: Compound NOT metabolized
Bacterial Biotransformation [20]: Compound NOT metabolized
